| melting point [°C] | Structure (SMILES) |
| --- | --- |
| 284 to 286 | O=C(CCCOc1ccc2nc3[nH]c(=O)[nH]c3cc2c1)N1CCCCC1 |
| 208 to 209 | CC(=O)c1c(-c2ccncc2)[nH]c(-c2ccccc2)c1C |
| 144 to 146 | CCCCc1nn(-c2ccccc2C(F)(F)F)c(=O)n1Cc1ccc(-c2ccccc2S(=O)(=O)NC(=O)C(c2ccccc2)c2ccccc2)cc1 |
| 178 to 180 | Cn1c(=O)c(C(=O)O)c(-c2ccccc2Cl)c2cccnc21 |
| 150 to 153 | COC(COC(=O)C1=C(C)NC2=C(C(=O)CNC2)C1c1cccc(Cl)c1Cl)c1ccccc1 (centres undefined) |
| 273 to 274 | COc1ccc(CNc2nc(C)nc(C)c2Cl)cc1Oc1ccc2ncc([N+](=O)[O-])n2n1 |
| 142 to 145 | CCCCCCCCCCCCCCC(=O)Nc1ccn(C2OC(CO)C(O)C2O)c(=O)n1 (centres undefined) |
| 133 to 135 | Cc1c(CP(=O)(OCCCl)OCCCl)cc(C(C)(C)C)c(O)c1C |
| 141 to 143 | CC1(C)OC[C@H]([C@@H](CS(=O)(=O)c2ccc(Oc3ccc(C(F)(F)F)cc3)cc2)N(O)C=O)O1 |
| 206 to 210 | O=Cc1cn(C2CCc3ccccc3C2)c(=S)[nH]1 (centres undefined) |
| 210 to 211 | CC(C)(C)c1cc(C(=O)NCc2cccc([N+](=O)[O-])c2)cc(C(C)(C)C)c1O |
| 101 to 104 | O=C(C=Cc1c(Cl)ccc(Cl)c1Cl)c1ccc(OC2CCCCO2)cc1 (centres undefined) |
| 152 | O=Cc1c(C2CC2)nc2ccccc2c1-c1ccc(F)cc1 |
| 164 to 166 | Cc1ccc(CC2CCN(CCOc3ccc4cc(O)ccc4c3)CC2)cc1 |
| 129 to 132 | CC(=NO)c1ccc(OCC(O)(Cn2cncn2)C(C)(C)C)cc1 (centres undefined) |
| 187 to 189 | CC(C)(C)CC(C)(C)c1ccc(Oc2cc(N)c(O)cc2[N+](=O)[O-])cc1 |
| 113 to 114 | O=[N+]([O-])c1ccc(F)c(-c2cccc(CO)c2)c1 |
| 125 to 127 | COc1ccc(NS(=O)(=O)c2cccc3c(N(C)C)cccc23)nn1 |
| 263 to 264 | COC(=O)C1=C(C)Nc2nccn2C1c1cccc([N+](=O)[O-])c1 (centres undefined) |

| melting point [°C] | Structure (SMILES) |
| --- | --- |
| 66 to 69 | CCOC(=O)c1cc(-c2ccccc2)nc2c(N)cccc12 |
| 256 to 257 | O=c1nc(-c2ccccn2)sc2cccc(F)c12 |
| 211 to 213 | COc1ccc(N(c2ccc(OC)cc2)c2ccc(-c3ccc(N(c4ccc(OC)cc4)c4ccc5ccc6cccc7ccc4c5c67)cc3)cc2)cc1 |
| 131 | CCOC(=O)CSc1nc(O)ns1 |
| 233 to 235 | CCCc1[nH]c(=O)[nH]c(=O)c1N1CCN(Cc2ccccc2)CC1 |
| 181 to 183 | Cn1nc2ccccc2c1S(N)(=O)=O |
| 220 to 223 | NC(=O)c1cc2ccccc2cc1NC(=S)NC(=O)c1ccccc1 |
| 248 to 250 | c1cn(-c2nc(N3CCOCC3)nc(N3CCOCC3)n2)cn1 |
| 130 to 132 | COc1cc2c(cc1Cl)C(Cl)Cc1ccccc1S2 (centres undefined) |
| 114 to 115 | Cc1cc(C)c(C(CO)c2ccc(Br)cc2)c(O)c1C (centres undefined) |
| 115 to 117 | COc1cccc(-c2ccc3c(c2)C(=O)N(Cc2cccnc2)C3=O)c1 |
| 143 to 144 | Cc1nc(-c2ccc(-c3ccco3)cc2)c(-c2ccc(S(C)(=O)=O)cc2)o1 |
| 222 | O=C(COc1cc(-c2ccc([N+](=O)[O-])cc2)nc2cccc(C(F)(F)F)c12)N1CCOCC1 |
| 35 to 36 | c1ccc(Oc2nnns2)cc1 |
| 205 to 206 | Cc1oc(-c2cc(C(C)(C)C)c(O)c(C(C)(C)C)c2)nc1CC(=O)O |
| 160 | Clc1nc2ccnn2c2ncccc12 |
| 135 to 136 | CCc1cc(OCc2ccccc2)cc(C(=O)O)c1C(=O)OC |
| 215 | O=C(O)/C=C/c1ccc(N2CCC(=O)CC2)cc1 |

| Structure (SMILES) | melting point [°C] |
| --- | --- |
| CC1Cc2cc3c(cc2C(c2ccc([N+](=O)[O-])cc2)=NN1C(=O)CCl)OCO3 (centres undefined) | 158 to 160 |
| CC(C)c1c(C(=O)c2cccnc2)c2ccccc2n1C | 114 |
